The test system of one data set is DU145 tumor xenografts. Nature of the data set: TUNEL assay of the tumors. It counts as in vivo, BALB/c nude mice. The following applies: compared with PBS; tumors excised at 15 d. From the text:
The tumor tissue and other organs from the sacrificed mice were excised at 15 d of the treatments with various drugs. After being fixed in n 4% formaldehyde, dehydrated with ethanol, and embedded in paraffin, the tumor tissue and organs were further sectioned into 5 μm slices for hematoxylin and eosin (H&E) staining and the terminal deoxynucleotidyl transferase-mediated dUTP nick-end labeling (TUNEL) staining assay. The H&E-stained tissues and TUNEL-stained tissues were imaged by fluorescence microscopy (NIKON ECLIPSE C1, Tokyo, Japan).

Data set [1] in a line: In vivo pharmacokinetics after intravenous administration. The note with it: ICR mice. As for the experimental part:
Pharmacokinetics was evaluated in ICR mice (about 20 g). […] A total of 0.1 mL of fresh blood was collected through orbital at appropriate intervals, put into a centrifuge tube pretreated with heparin sodium, and centrifugated (5000 rpm, 10 min). A total of 100 µL acetonitrile was added to 50 µL of supernatant collected to extract PTX and precipitate protein in serum, and the mixture was centrifugated for another 10 min (1200 rpm). The amounts of PTX in the collected supernatant were determined by HPLC (acetonitrile:water = 50:50 (v:v); flow rate: 1.0 mL/min; wavelength: 227 nm).

The test system of the next data set is DU145 cells. The data set can be described thus: In vitro cytotoxicity by MTT assay. It counts as cell-based. The note with it: Homo sapiens, DU-145, 24 h (Figure 5 legend) / 48 h (method), read-out: half-maximal inhibitory concentrations (IC50). As for the experimental part: Human prostate cancer cells (DU145) were cultivated in DMEM supplemented with fetal bovine serum (FBS, 10%), streptomycin (100 μg/mL), and penicillin (100 units/mL). The cells were incubated in a humid atmosphere with 5% CO2 at 37 °C.
The in vitro cytotoxicities of PTX-loaded NPs were measured by MTT assays. Cells were seeded in 96-well plates (5000–8000 cells per well) and incubated at 37 °C. After 24 h, the medium was replaced with 180 μL of fresh medium, and the cells were treated with serial dilutions of PTX/PBA NPs, PTX/mPEG-PAL NPs, blank PBA NPs, and blank mPEG-PAL NPs (20 μL) for 48 h at 37 °C. At the end of the incubation, to each well was added […] of MTT solution (5 mg/mL in PBS). After 4 h, the MTT solution was removed from the wells, followed by the addition of supplementary DMSO (100 μL) to dissolve the purple MTT formazan crystals. The absorbance of each well was determined at 490 nm on a microplate reader (Flexstation 3, Molecular Devices LLC, Sunnyvale, CA, USA).

In another data set the test system is human DU145 tumor model. The following applies: 7.5 mg/kg i.v. on days 0, 3 and 6.
A short description of data set [2]: Body weight of tumor-bearing mice during treatment. It counts as in vivo, BALB/c nude mice. The note with it: 7.5 mg/kg i.v. on days 0, 3 and 6.
Description: (§1) BALB/c nude mice (4–5 weeks old) were used for the evaluation of the antitumor activities of the nanotherapies. The human prostate cancer cell line DU145 was grown to 80% confluence in 90 mm tissue culture dishes. After cell harvesting, the cells were resuspended in PBS at 4 °C to reach a final concentration of 1.5 × 10^7 cells/mL. The right flanks of the BALB/c nude mice were subcutaneously injected with 200 μL of a cell suspension containing 3 × 10^6 cells. At 4 days after implantation, the tumors reached approximately 150 mm^3 in volume, and then the mice were randomly divided into four groups (n = 6 mice per group). Mice bearing DU145 tumor xenografts were injected intravenously with PBS, Taxol, PTX/PBA NPs, and PTX/mPEG-PAL NPs at 7.5 mg/kg three times on days 0, 3, and 6. Tumor volumes and body weights were monitored and recorded once every three days. The lengths (L) and widths (W) of the tumors were measured with calipers, and the tumor volume was calculated by the following formula: V = (L × W^2)/2, where W is shorter than L.

Structures are written as SMILES. pIC50: −log10 of the molar value.

Description for human DU145 tumor model: as §1

Take `CC(=O)O[C@H]1C(=O)[C@@]2(C)[C@H]([C@H](OC(=O)c3ccccc3)[C@]3(O)C[C@H](OC(=O)[C@H](O)[C@@H](NC(=O)c4ccccc4)c4ccccc4)C(C)=C1C3(C)C)[C@]1(OC(C)=O)CO[C@@H]1C[C@@H]2O` [Taxol, Paclitaxel]: in the data set with DU145 tumor xenografts, the “cell apoptosis rate in tumors (TUNEL)” value is on record as “dramatic increase”. The compound further displayed a t1/2α in data set [1] of 3.24 min. Moreover, in data set [1] (mouse, plasma), the AUC(0-inf) turned out to be 85.4 ng·h/mL, the exposure AUC(0-t) worked out at 67.5 ng·h/mL and the Cmax came to 94.6 ng/mL. Further, in data set [1] (mouse, plasma, read-out: t1/2β (converted)), the half-life was 26 min. Further, the pIC50 in the data set on DU145 cells was 8.52. For the same compound, the “therapeutic efficacy (tumor photograph and weight at the end of treatment)” value with human DU145 tumor model (end of treatment) was “better therapeutic efficacy than PBS”. Moreover, in the data set on human DU145 tumor model (first 6 days), the “tumor growth (tumor volume)” value is “completely inhibited”. For the same compound, in data set [2], the “body weight of mice” value is “remained almost unchanged in the first 9 days and then showed a slow uptrend”.

Values taken from paper PMC10254657, “Efficient pH-Responsive Nano-Drug Delivery System Based on Dynamic Boronic Acid/Ester Transformation” (Molecules, 2023).
